By IC50 is commonly meant the midpoint of a concentration-inhibition curve.

Assay [1] is described as follows: Fe(III) binding study by UV-vis spectroscopy. The settings on record: 30 μM compound, excess FeCl3 (50 μM), methanol. As for the experimental part: With the prodrugs in hand, binding studies were carried out using UV-vis spectroscopy; this was done to confirm the Fe(III) binding ability of all new compounds. […] To evaluate whether 2a, 2b, 3a, and 3b were chelating Fe(III), each prodrug was similarly dissolved in a solution containing excess FeCl3.
Fig. 2 UV-vis absorption spectra for prodrugs 2a/b and 3a/b as well as 1 at a concentration of 30 μM with an excess of FeCl3 as Fe(III) source (50 μM) in methanol.
UV-vis spectra were recorded in methanol containing the indicated ligand or prodrug at a concentration of 30 µM and as appropriate Fe(III) at a concentration of 50 µM. A stock solution of FeCl3 in DMSO was used as source of Fe(III) and ligands were added from a […] stock solution in DMSO. All samples contained a final concentration of <0.2% DMSO.
Figure S7: UV-vis absorption spectra of 1, Fe(III), and 1 + Fe(III). The graph for 1 + Fe(III) (Numerically) was constructed by numerically adding the respective signals of Fe(III) and 1 to show what graph could be expected if the two species were in the same solution without interacting.
Figure S8: UV-vis absorption spectra of 2a, Fe(III), and 2a + Fe(III). The graph for 2a + Fe(III) (Numerically) was constructed by numerically adding the respective signals of Fe(III) and 2a to show what graph could be expected if the two species were in the same solution without interacting. […]

A further assay relates to OvCar-3 cells. The assay is described as follows: MTT cell viability assay, OvCar-3 cells. In kind it is cell-based. To be noted: Homo sapiens, 72 h incubation, mean and SD of three independent experiments, read-out: IC50 against OvCar-3. The protocol: (§1) Next, the cytotoxicity of the prodrugs was assessed in the human lung cancer (A549) and human ovarian cancer (OvCar-3) cell lines: overexpressing β-glucosidase, and, overexpressing both β-glucosidase and β-galactosidase, respectively.[40,41] For this, a standard MTT assay was employed to generate the proliferation profiles (cf. ESI ^† Fig. S1–S5) and allowed us to calculate the IC50 values for each compound. GM5756 fibroblast cells were included as non-cancerous control.
(§2) Cell culture. Ovcar-3 cells were maintained in RPMI-1640 medium (Invitrogen), A549 cells were maintained in high glucose (4.5 g/L) Dulbecco’s Modified Eagle’s medium (Invitrogen. Alle employed culture media were supplemented with 10% fetal bovine serum (Gibco), 2% penicillin/streptomycin (Sigma Aldrich), 1%GlutaMAX™-I (100x, Gibco), and 1% sodium pyruvate (100 mM, Gibco).
(§3) Cells were kept under a humidified atmosphere of 10% CO2 and 90% air at 37°C. Cells were split when they reached 90% confluency. All employed cell lines were sourced from the German Collection of Microorganisms and Cell Cultures (Leibnitz Institute, DSMZ).
(§4) Cell viability studies and MTT assays. Cells were harvested and plated on a 96-well plate in 100 µL growth medium at a density of 1500 cells per well. The cells were left to grow for 24 h at 37°C under a humidified atmosphere with 10% CO2. The next day, 100 µL of growth medium containing appropriate concentrations of the investigated compound were added to each well. As a control, the first row of wells was treated with 100 µL medium containing only the vehicle (1% DMSO); all wells contained a final concentration of 0.5% DMSO for the duration of the treatment. After incubation with the compound for 72 h, 50 µL of MTT solution (2.5 mg/mL 3-(4,5-dimethylthiazol-2-yl)-2,5-diphenyltetrazolium bromide dye in PBS buffer) was added to each well. After an additional incubation for 2 h, the supernatant was aspired off and 200 µL of DMSO was added to each well to solubilize the precipitated formazan dye. The produced formazan dye was quantified by measuring the optical density of the solution at 550 nm with a Tecan Infinite M Nano+ plate reader. A baseline correction was performed by subtracting a reference absorbance at 620 nm for each well. From the mean of the corrected absorbances for each set of equivalent wells, a dose-response curve was produced, which was then normalized to the wells containing untreated cells to allow for plate-to-plate comparison. The resulting dose-response curves were subjected to non-linear regression analysis performed in Microsoft Excel (version 16.64) to determine IC50 via the Hill-Langmuir model. Data is shown as the mean of three replicate experiments and error bars represent the standard deviation at each datum point.
In general terms: Tetrazolium assays rely on reduction of a dye to a coloured formazan, in cell work by metabolically active cells.

The test system of a further assay is A549 cells. The assay is described as follows: MTT cell viability assay, A549 cells. In kind it is cell-based. The settings on record: Homo sapiens, 72 h incubation, mean and SD of three independent experiments, read-out: IC50 against A549. The protocol:
as §1, §2, §3, §4

In the next assay the test system is GM5756 fibroblast cells. Nature of the assay: MTT cell viability assay, GM5756 fibroblast cells (non-cancerous control). To be noted: 72 h incubation, mean and SD of three independent experiments, read-out: IC50 against GM5756. In kind it is cell-based. The protocol: as §1, §2, §3, §4
For a further assay, the system named is β-glucosidase. The assay is described as follows: Enzymatic cleavage study (HPLC) with β-glucosidase. In kind it is biochemical, almonds. The settings on record: for Release of 1 (HPLC): 100 μM prodrug in PBS, 2 units β-glucosidase, 37°C. As for the experimental part: To test the desired, selective enzymatic cleavage and further evaluate compound stability, solutions of each prodrug were prepared in phosphate-buffered saline (PBS), and either β-galactosidase or β-glucosidase were added. After incubation times of 24 h and 48 h, samples from each mixture were analyzed by HPLC to gain insight into the relative amounts of both the remaining prodrug and the liberated 1.
Fig. 3 HPLC traces after 48 h of enzyme incubation for the prodrugs of this study as indicated at their respective peaks. The identity of the employed enzyme is indicated on the left of the chromatogram and the identity of each observed compound is shown above the respective peak. Chromatograms are shown with an offset of 2 along the ordinate to facilitate comparison.
The three following enzymes were employed in this study:
(1) esterase from porcine liver sourced from Sigma Aldrich as dry powder with an activity of 229.4 units/mg protein as indicated by the supplier for the received lot; (2) β-glucosidase from almonds sourced from Sigma Aldrich as dry powder with an activity of 11.7 U/mg as indicated by the supplier for the received lot
(3) β-galactosidase from e.coli overproducer sourced from Roche as prepared aqueous solution with an activity of 1500 units/mL protein as indicated by the supplier for the […]
As indicated for each experiment below, the respective enzyme was dissolved in PBS buffer and diluted as appropriate to produce the desired concentration.
25 mM stock solutions in DMSO were prepared for 2a, 2b, 3a, and 3b. […]
[…] The vials were then assigned to one of three experimental groups: control, negative, and positive.
In the control group, no enzyme was introduced. […]
All vials were incubated in a 37°C water bath for 48 hours. Aliquots were extracted from each vial after 24 and 48 hours, respectively, and analyzed as described below.
The extracted aliquots were analyzed via high-performance liquid chromatography (HPLC) with ultraviolet (UV) detection at a wavelength of 254 nm. Chromatograms were plotted with an offset of 1 along the y-axis to allow clear intercomparison of the data across the […]

For `OC[C@H]1OC(Oc2ccccc2-c2nc(-c3ccccc3O)nn2-c2ccccc2)[C@H](O)[C@@H](O)[C@H]1O` (stereo partly drawn) [2a], the “Absorbance at 510 nm (Fe(III) chelation band)” value (from here on “Absorbance at 510 nm”) in assay [1] is given as “no relevant absorbance at 510 nm”. Moreover, the values for the concentration for half-maximal inhibition (IC50) in the assay with OvCar-3 cells, in the assay on A549 cells and with GM5756 fibroblast cells were 67.6 ± 13 µM, 74.4 ± 14.1 µM and greater than 100 µM, respectively.
Turning to `OC[C@H]1OC(Oc2ccccc2-c2nc(-c3ccccc3O)nn2-c2ccccc2)[C@H](O)[C@@H](O)[C@@H]1O` (stereo partly drawn) [2b], in assay [1], the “Absorbance at 510 nm” value is “no relevant absorbance at 510 nm”. For the same molecule, the “Release of 1 (HPLC)” value in the assay with β-glucosidase (24 h) and with β-glucosidase (48 h) was “no release of 1 was observed” each time. Further, the results for the IC50 in the assay with OvCar-3 cells, in the assay with A549 cells and in the assay with GM5756 fibroblast cells were 76.5 ± 0.8 µM, greater than 100 µM and greater than 100 µM, respectively.
In the case of `OC[C@H]1OC(Oc2ccc(COc3ccccc3-c3nc(-c4ccccc4O)nn3-c3ccccc3)cc2)[C@H](O)[C@@H](O)[C@H]1O` (stereo partly drawn) [3a], the “Absorbance at 510 nm” value in assay [1] is on record as “no relevant absorbance at 510 nm”. Besides, the figures for the IC50 in the assay on OvCar-3 cells, with A549 cells and in the assay with GM5756 fibroblast cells were 9.1 ± 1.6 µM, 44.1 ± 2.4 µM and greater than 100 µM, respectively.
As to `OC[C@H]1OC(Oc2ccc(COc3ccccc3-c3nc(-c4ccccc4O)nn3-c3ccccc3)cc2)[C@H](O)[C@@H](O)[C@@H]1O` (stereo partly drawn) [3b], the “Absorbance at 510 nm” value in assay [1] is “no relevant absorbance at 510 nm”. Also, the “Cleavage of 1 from prodrug (HPLC of the fluorescence sample)” value in the assay on β-glucosidase (20 μM in water, 3 enzyme units of β-glucosidase, 24 h) is “successful cleavage”. Also, the “Release of 1 (HPLC)” value in the assay with β-glucosidase (24 h) is recorded as “significant release of 1”; in the assay on β-glucosidase (48 h) it was “further increased”. The IC50 in the assay on OvCar-3 cells was found to be 3.7 ± 0.3 µM; in the assay on A549 cells, 7.4 ± 1.5 µM; in the assay with GM5756 fibroblast cells, 15.3 ± 2.3 µM.

For the origin of these results see paper PMC12177571, “Glycosidase-activated prodrugs of a cytotoxic iron chelator for targeted cancer therapy” (RSC Medicinal Chemistry, 2025).
